According to patent US20070128217A1 (priority 2003, published 2007):

Legend:
[1] = test system: antibodies in sera from SARS patients (sera 1a, 1b, 2, 6, 37, 62, London, SARS-yellow, SARS-green); type: binding, human; set-up: Binding of serum 6 to linear peptides of protein X1 of SARS-CoV Urbani / Binding of serum 37 to linear peptides of protein X1 of SARS-CoV Urbani / Binding of serum 6 to looped/cyclic peptide (PEPSCAN-ELISA) / Binding of serum 37 to looped/cyclic peptide (PEPSCAN-ELISA) / Binding of serum 37 to looped/cyclic peptides of protein X1 of SARS-CoV Urbani / Binding of serum 6 to linear peptides of protein X2 / Binding of serum 37 to linear peptides of protein X2 / Binding of serum 37 to looped/cyclic peptides of protein X2 of SARS-CoV Urbani / Binding of serum 6 to linear peptides of protein M of SARS-CoV Urbani / Binding of serum 37 to linear peptides of protein M of SARS-CoV Urbani / Binding of serum 6 to looped/cyclic peptides of protein M of SARS-CoV Urbani / Binding of serum 37 to looped/cyclic peptides of protein M of SARS-CoV Urbani / Binding of serum 6 to linear peptides of protein X3 of SARS-CoV Urbani / Binding of serum 37 to linear peptides of protein X3 of SARS-CoV Urbani / Binding of serum 37 to looped/cyclic peptides of protein X3 of SARS-CoV Urbani / Binding of serum 6 to linear peptides of protein X4 of SARS-CoV Urbani / Binding of serum 37 to linear peptides of protein X4 of SARS-CoV Urbani / Binding of serum 37 to looped/cyclic peptides of protein X4 of SARS-CoV Urbani / Binding of serum 6 to linear peptides of protein X5 of SARS-CoV Urbani / Binding of serum 37 to linear peptides of protein X5 of SARS-CoV Urbani / Binding of serum 37 to looped/cyclic peptides of protein X5 of SARS-CoV Urbani / Binding of serum 6 to linear peptides of protein N of SARS-CoV Urbani / Binding of serum 37 to linear peptides of protein N of SARS-CoV Urbani / Binding of serum 6 to linear peptide (PEPSCAN-ELISA) / Binding of serum 1a to looped/cyclic peptides of protein N of SARS-CoV Urbani / Binding of serum 1b to looped/cyclic peptides of protein N of SARS-CoV Urbani / Binding of serum 2 to looped/cyclic peptides of protein N of SARS-CoV Urbani / Binding of serum 6 to looped/cyclic peptides of protein N of SARS-CoV Urbani / Binding of serum 37 to looped/cyclic peptides of protein N of SARS-CoV Urbani / Binding of serum 62 to looped/cyclic peptides of protein N of SARS-CoV Urbani / Binding of serum London to looped/cyclic peptides of protein N of SARS-CoV Urbani / Binding of serum SARS-green to looped/cyclic peptides of protein N of SARS-CoV Urbani: unit not given here
[2] = test system: rabbit serum obtained by immunizing a rabbit with the SARS-CoV strain Frankfurt 1; type: binding; set-up: Binding of a rabbit serum to linear peptides / Binding of a rabbit serum to looped peptides / Rabbit serum linear peptides / Rabbit serum looped peptides / Binding of a rabbit serum to linear peptides of protein N of SARS-CoV Urbani (Rabbit serum linear peptides) / Binding of a rabbit serum to looped/cyclic peptides of protein N of SARS-CoV Urbani (Rabbit serum looped peptides): unit not given here
[3] = test system: control sera (pooled serum of ten healthy LUMC hospital workers; commercial negative donor pooled serum from the Dutch bloodbank); type: binding, human; set-up: Binding of Control serum LUMC to linear peptides / Binding of Control serum Blood-bank to linear peptides / Binding of Control serum LUMC to looped peptides / Binding of Control Serum Blood-Bank to Looped peptides / Binding of Control serum LUMC to linear peptides of the protein M of SARS-CoV Urbani / Binding of Control serum Blood-bank to linear peptides of the protein M of SARS-CoV Urbani / Binding of Control serum LUMC to looped peptides of the protein M of SARS-CoV Urbani / Binding of Control Serum Blood-Bank to Looped peptides of the protein M of SARS-CoV Urbani: unit not given here
[4] = test system: recombinant human anti-SARS-CoV antibody 03-018; type: binding; set-up: Binding of antibody 03-018 to linear peptides of the N protein of SARS-CoV Urbani / Binding of antibody 03-018 to looped/cyclic peptides of the N protein of SARS-CoV Urbani: unit not given here

TASWFTALTQHGKEE
0.1: Binding of serum 1b to linear peptides of protein N of SARS-CoV Urbani [1] | Binding of serum 1b to looped/cyclic peptides of protein N of SARS-CoV Urbani [1] | Binding of serum 2 to linear peptides of protein N of SARS-CoV Urbani [1] | Binding of serum 2 to looped/cyclic peptides of protein N of SARS-CoV Urbani [1] | Binding of serum 6 to linear peptides of protein N of SARS-CoV Urbani [1] | Binding of serum 6 to looped/cyclic peptides of protein N of SARS-CoV Urbani [1] | Binding of serum SARS-green to looped/cyclic peptides of protein N of SARS-CoV Urbani [1] | Binding of a rabbit serum to linear peptides of protein N of SARS-CoV Urbani (Rabbit serum linear peptides) [2] | Binding of antibody 03-018 to linear peptides of the N protein of SARS-CoV Urbani [4]
0.2: Binding of serum 1a to linear peptides of protein N of SARS-CoV Urbani [1] | Binding of serum 1a to looped/cyclic peptides of protein N of SARS-CoV Urbani [1] | Binding of serum 62 to looped/cyclic peptides of protein N of SARS-CoV Urbani [1] | Binding of serum SARS-yellow to looped/cyclic peptides of protein N of SARS-CoV Urbani [1] | Binding of antibody 03-018 to looped/cyclic peptides of the N protein of SARS-CoV Urbani [4]
0.4: Binding of serum 37 to looped/cyclic peptides of protein N of SARS-CoV Urbani [1] | Binding of serum 62 to linear peptides of protein N of SARS-CoV Urbani [1] | Binding of serum London to linear peptides of protein N of SARS-CoV Urbani [1] | Binding of Control Serum Blood-Bank to Looped peptides [3]
0.6: Binding of Control serum Blood-bank to linear peptides [3]
0.7: Binding of serum 37 to linear peptides of protein N of SARS-CoV Urbani [1] | Binding of a rabbit serum to looped/cyclic peptides of protein N of SARS-CoV Urbani (Rabbit serum looped peptides) [2]
0.5: Binding of serum SARS-yellow to linear peptides of protein N of SARS-CoV Urbani [1] | Binding of Control serum LUMC to linear peptides [3]
0.3: Binding of serum London to looped/cyclic peptides of protein N of SARS-CoV Urbani [1] | Binding of serum SARS-green to linear peptides of protein N of SARS-CoV Urbani [1] | Binding of Control serum LUMC to looped peptides [3]

TEGALNTPKDHIGTR
0.1: Binding of serum 1b to linear peptides of protein N of SARS-CoV Urbani [1]
0.0: Binding of a rabbit serum to looped/cyclic peptides of protein N of SARS-CoV Urbani (Rabbit serum looped peptides) [2]
1.0: Binding of Control serum Blood-bank to linear peptides [3]
0.2: Binding of serum 1a to linear peptides of protein N of SARS-CoV Urbani [1] | Binding of serum 1b to looped/cyclic peptides of protein N of SARS-CoV Urbani [1] | Binding of serum 2 to linear peptides of protein N of SARS-CoV Urbani [1] | Binding of serum 6 to linear peptides of protein N of SARS-CoV Urbani [1] | Binding of a rabbit serum to linear peptides of protein N of SARS-CoV Urbani (Rabbit serum linear peptides) [2] | Binding of antibody 03-018 to linear peptides of the N protein of SARS-CoV Urbani [4]
0.5: Binding of serum 2 to looped/cyclic peptides of protein N of SARS-CoV Urbani [1] | Binding of serum 37 to looped/cyclic peptides of protein N of SARS-CoV Urbani [1] | Binding of serum London to linear peptides of protein N of SARS-CoV Urbani [1]
0.4: Binding of serum 6 to looped/cyclic peptides of protein N of SARS-CoV Urbani [1] | Binding of serum London to looped/cyclic peptides of protein N of SARS-CoV Urbani [1] | Binding of serum SARS-yellow to looped/cyclic peptides of protein N of SARS-CoV Urbani [1]
0.3: Binding of serum 1a to looped/cyclic peptides of protein N of SARS-CoV Urbani [1] | Binding of antibody 03-018 to looped/cyclic peptides of the N protein of SARS-CoV Urbani [4]
0.6: Binding of serum 62 to looped/cyclic peptides of protein N of SARS-CoV Urbani [1] | Binding of serum SARS-green to linear peptides of protein N of SARS-CoV Urbani [1] | Binding of serum SARS-green to looped/cyclic peptides of protein N of SARS-CoV Urbani [1] | Binding of serum SARS-yellow to linear peptides of protein N of SARS-CoV Urbani [1]
0.9: Binding of Control serum LUMC to linear peptides [3]
0.7: Binding of serum 37 to linear peptides of protein N of SARS-CoV Urbani [1] | Binding of serum 62 to linear peptides of protein N of SARS-CoV Urbani [1] | Binding of Control Serum Blood-Bank to Looped peptides [3] | Binding of Control serum LUMC to looped peptides [3]

SSRSSSRSRGNSRNS
0.7: Binding of serum SARS-yellow to linear peptide (PEPSCAN-ELISA) [1] | Binding of a rabbit serum to looped/cyclic peptides of protein N of SARS-CoV Urbani (Rabbit serum looped peptides) [2] | Binding of Control Serum Blood-Bank to Looped peptides [3] | Binding of Control serum Blood-bank to linear peptides [3] | Binding of Control serum LUMC to linear peptides [3] | Binding of Control serum LUMC to looped peptides [3]
0.3: Binding of serum 1a to looped/cyclic peptides of protein N of SARS-CoV Urbani [1] | Binding of serum 1b to looped/cyclic peptides of protein N of SARS-CoV Urbani [1] | Binding of serum 6 to looped/cyclic peptides of protein N of SARS-CoV Urbani [1] | Binding of serum SARS-green to linear peptide (PEPSCAN-ELISA) [1] | Binding of serum SARS-green to looped/cyclic peptides of protein N of SARS-CoV Urbani [1]
0.5: Binding of serum 37 to linear peptide (PEPSCAN-ELISA) [1] | Binding of serum 37 to looped/cyclic peptides of protein N of SARS-CoV Urbani [1] | Binding of serum London to linear peptide (PEPSCAN-ELISA) [1] | Binding of serum London to looped/cyclic peptides of protein N of SARS-CoV Urbani [1]
0.1: Binding of serum 1b to linear peptide (PEPSCAN-ELISA) [1] | Binding of antibody 03-018 to linear peptides of the N protein of SARS-CoV Urbani [4]
0.4: Binding of serum 2 to looped/cyclic peptides of protein N of SARS-CoV Urbani [1] | Binding of serum SARS-yellow to looped/cyclic peptides of protein N of SARS-CoV Urbani [1]
0.6: Binding of serum 62 to linear peptide (PEPSCAN-ELISA) [1] | Binding of serum 62 to looped/cyclic peptides of protein N of SARS-CoV Urbani [1]
0.2: Binding of serum 1a to linear peptide (PEPSCAN-ELISA) [1] | Binding of serum 2 to linear peptide (PEPSCAN-ELISA) [1] | Binding of serum 6 to linear peptide (PEPSCAN-ELISA) [1] | Binding of a rabbit serum to linear peptides of protein N of SARS-CoV Urbani (Rabbit serum linear peptides) [2] | Binding of antibody 03-018 to looped/cyclic peptides of the N protein of SARS-CoV Urbani [4]

AYKTFPPTEPKKDKK
0.7: Binding of serum 37 to linear peptides of protein N of SARS-CoV Urbani [1] | Binding of serum SARS-yellow to linear peptides of protein N of SARS-CoV Urbani [1] | Control serum Blood-bank linear peptides [3]
0.3: Binding of serum 2 to linear peptides of protein N of SARS-CoV Urbani [1] | Binding of serum SARS-green to linear peptides of protein N of SARS-CoV Urbani [1] | Control Serum Blood-Bank Looped peptides [3]
0.0: Binding of serum 6 to looped/cyclic peptides of protein N of SARS-CoV Urbani [1] | Binding of serum SARS-green to looped/cyclic peptides of protein N of SARS-CoV Urbani [1] | Binding of serum SARS-yellow to looped/cyclic peptides of protein N of SARS-CoV Urbani [1] | Binding of a rabbit serum to looped/cyclic peptides of protein N of SARS-CoV Urbani (Rabbit serum looped peptides) [2]
0.8: Binding of serum 62 to linear peptides of protein N of SARS-CoV Urbani [1]
0.1: Binding of serum 1a to looped/cyclic peptides of protein N of SARS-CoV Urbani [1] | Binding of serum 1b to linear peptides of protein N of SARS-CoV Urbani [1] | Binding of serum 1b to looped/cyclic peptides of protein N of SARS-CoV Urbani [1] | Binding of serum 62 to looped/cyclic peptides of protein N of SARS-CoV Urbani [1] | Binding of serum London to looped/cyclic peptides of protein N of SARS-CoV Urbani [1] | Control serum LUMC looped peptides [3] | Binding of antibody 03-018 to linear peptides of the N protein of SARS-CoV Urbani [4] | Binding of antibody 03-018 to looped/cyclic peptides of the N protein of SARS-CoV Urbani [4]
0.6: Binding of serum London to linear peptides of protein N of SARS-CoV Urbani [1] | Control serum LUMC linear peptides [3]
0.2: Binding of serum 1a to linear peptides of protein N of SARS-CoV Urbani [1] | Binding of serum 2 to looped/cyclic peptides of protein N of SARS-CoV Urbani [1] | Binding of serum 6 to linear peptides of protein N of SARS-CoV Urbani [1] | Binding of serum 37 to looped/cyclic peptides of protein N of SARS-CoV Urbani [1] | Binding of a rabbit serum to linear peptides of protein N of SARS-CoV Urbani (Rabbit serum linear peptides) [2]
